Test results: PubChem BioAssay (NCI)
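48-hour exposure; five concentrations; linearly interpolated endpoints. Here, GI50 denotes the concentration required for 50% inhibition of growth. TGI: total growth inhibition.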

Key:
Experiment in all cases: NCI-60 cell line screen, 48 h
SNB-19 CNS = system: SNB-19 CNS
NCI/ADR-RES ovarian = system: NCI/ADR-RES ovarian
IGROV1 ovarian = system: IGROV1 ovarian
NCI-H226 lung = system: NCI-H226 lung
SK-MEL-5 melanoma = system: SK-MEL-5 melanoma
HS 578T breast = system: HS 578T breast
ACHN renal = system: ACHN renal
786-0 renal = system: 786-0 renal
SF-539 CNS = system: SF-539 CNS
T-47D breast = system: T-47D breast
SN12C renal = system: SN12C renal
CAKI-1 renal = system: CAKI-1 renal
OVCAR-4 ovarian = system: OVCAR-4 ovarian
SK-MEL-28 melanoma = system: SK-MEL-28 melanoma
KM12 colon = system: KM12 colon
UACC-62 melanoma = system: UACC-62 melanoma
COLO 205 colon = system: COLO 205 colon
NCI-H460 lung = system: NCI-H460 lung
MALME-3M melanoma = system: MALME-3M melanoma
HOP-92 NSCLC = system: HOP-92 NSCLC
MCF7 breast = system: MCF7 breast
MDA-MB-435 = system: MDA-MB-435
PC-3 prostate = system: PC-3 prostate
M14 melanoma = system: M14 melanoma
K-562 leukemia = system: K-562 leukemia
EKVX NSCLC = system: EKVX NSCLC
OVCAR-8 ovarian = system: OVCAR-8 ovarian
SK-OV-3 ovarian = system: SK-OV-3 ovarian
CCRF-CEM leukemia = system: CCRF-CEM leukemia
UACC-257 melanoma = system: UACC-257 melanoma
BT-549 breast = system: BT-549 breast
NCI-H23 lung = system: NCI-H23 lung
HCT-116 colon = system: HCT-116 colon
A498 renal = system: A498 renal
TK-10 renal = system: TK-10 renal
RXF 393 renal = system: RXF 393 renal
NCI-H522 lung = system: NCI-H522 lung
RPMI-8226 leukemia = system: RPMI-8226 leukemia
HCC-2998 colon = system: HCC-2998 colon
SF-295 CNS = system: SF-295 CNS
HOP-62 NSCLC = system: HOP-62 NSCLC
MDA-MB-468 breast = system: MDA-MB-468 breast
OVCAR-5 ovarian = system: OVCAR-5 ovarian
U251 CNS = system: U251 CNS
A549 NSCLC = system: A549 NSCLC
HCT-15 colon = system: HCT-15 colon
HT29 colon = system: HT29 colon
LOX IMVI melanoma = system: LOX IMVI melanoma
SF-268 CNS = system: SF-268 CNS
MOLT-4 leukemia = system: MOLT-4 leukemia
SR leukemia = system: SR leukemia
OVCAR-3 ovarian = system: OVCAR-3 ovarian
SW-620 colon = system: SW-620 colon
HL-60(TB) leukemia = system: HL-60(TB) leukemia
DU-145 prostate = system: DU-145 prostate

N#CC1=C(c2cccs2)Nc2c(c(-c3ccccc3)nn2-c2ccccc2)C12C(=O)Nc1ccc(Br)cc12 (stereo not given)
GI50 (SNB-19 CNS): 5.23 µM | TGI (SNB-19 CNS): 27.9 µM | GI50 (NCI/ADR-RES ovarian): 13.3 µM | TGI (NCI/ADR-RES ovarian): 29.1 µM | GI50 (IGROV1 ovarian): 14.2 µM | TGI (IGROV1 ovarian): 29.8 µM | GI50 (NCI-H226 lung): 15.4 µM | TGI (NCI-H226 lung): 31.2 µM | GI50 (SK-MEL-5 melanoma): 16.6 µM | TGI (SK-MEL-5 melanoma): 30.5 µM | GI50 (HS 578T breast): 12.7 µM | TGI (HS 578T breast): 40.1 µM | GI50 (ACHN renal): 11.9 µM | TGI (ACHN renal): 24.8 µM | GI50 (786-0 renal): 15.7 µM | TGI (786-0 renal): 30.5 µM | GI50 (SF-539 CNS): 15.2 µM | TGI (SF-539 CNS): 28.5 µM | GI50 (T-47D breast): 17.7 µM | TGI (T-47D breast): 45 µM | GI50 (SN12C renal): 13.7 µM | TGI (SN12C renal): 27.9 µM | GI50 (CAKI-1 renal): 16.2 µM | TGI (CAKI-1 renal): 37.5 µM | GI50 (OVCAR-4 ovarian): 14.2 µM | TGI (OVCAR-4 ovarian): 34.1 µM | GI50 (SK-MEL-28 melanoma): 15.1 µM | TGI (SK-MEL-28 melanoma): 28.4 µM | GI50 (KM12 colon): 7.67 µM | TGI (KM12 colon): 20.5 µM | GI50 (UACC-62 melanoma): 11.4 µM | TGI (UACC-62 melanoma): 23.6 µM | GI50 (COLO 205 colon): 16 µM | TGI (COLO 205 colon): 29.9 µM | GI50 (NCI-H460 lung): 11.2 µM | TGI (NCI-H460 lung): 24.6 µM | GI50 (MALME-3M melanoma): 14.5 µM | TGI (MALME-3M melanoma): 27.8 µM | GI50 (HOP-92 NSCLC): 3.4 µM | TGI (HOP-92 NSCLC): 15.4 µM | GI50 (MCF7 breast): 13.6 µM | TGI (MCF7 breast): 28.3 µM | GI50 (MDA-MB-435): 17 µM | TGI (MDA-MB-435): 33.7 µM | GI50 (PC-3 prostate): 6.37 µM | TGI (PC-3 prostate): 22 µM | GI50 (M14 melanoma): 14.4 µM | TGI (M14 melanoma): 27.7 µM | GI50 (K-562 leukemia): 7.53 µM | TGI (K-562 leukemia): 23.6 µM | GI50 (EKVX NSCLC): 11.1 µM | TGI (EKVX NSCLC): 27.4 µM | GI50 (OVCAR-8 ovarian): 15.6 µM | TGI (OVCAR-8 ovarian): 31 µM | GI50 (SK-OV-3 ovarian): 14.2 µM | TGI (SK-OV-3 ovarian): 28.6 µM | GI50 (CCRF-CEM leukemia): 7.51 µM | TGI (CCRF-CEM leukemia): 26.7 µM | GI50 (UACC-257 melanoma): 15.6 µM | TGI (UACC-257 melanoma): 30.9 µM | GI50 (BT-549 breast): 5.22 µM | TGI (BT-549 breast): 18.1 µM | GI50 (NCI-H23 lung): 9.98 µM | TGI (NCI-H23 lung): 21.8 µM | GI50 (HCT-116 colon): 12.1 µM | TGI (HCT-116 colon): 24.7 µM | GI50 (A498 renal): 16.3 µM | TGI (A498 renal): 30.7 µM | GI50 (TK-10 renal): 12.9 µM | TGI (TK-10 renal): 36.7 µM | GI50 (RXF 393 renal): 10.2 µM | TGI (RXF 393 renal): 22.2 µM | GI50 (NCI-H522 lung): 4.52 µM | TGI (NCI-H522 lung): 17.1 µM | GI50 (RPMI-8226 leukemia): 10.2 µM | TGI (RPMI-8226 leukemia): 32.9 µM | GI50 (HCC-2998 colon): 13.9 µM | TGI (HCC-2998 colon): 27 µM | GI50 (SF-295 CNS): 12.5 µM | TGI (SF-295 CNS): 25.6 µM | GI50 (HOP-62 NSCLC): 15.4 µM | TGI (HOP-62 NSCLC): 29.6 µM | GI50 (MDA-MB-468 breast): 12.9 µM | TGI (MDA-MB-468 breast): 27 µM | GI50 (OVCAR-5 ovarian): 16.5 µM | TGI (OVCAR-5 ovarian): 33.1 µM | GI50 (U251 CNS): 5.64 µM | TGI (U251 CNS): 18.4 µM | GI50 (A549 NSCLC): 10.2 µM | TGI (A549 NSCLC): 23 µM | GI50 (HCT-15 colon): 5.34 µM | TGI (HCT-15 colon): 18.2 µM | GI50 (HT29 colon): 15.2 µM | TGI (HT29 colon): 29.1 µM | GI50 (LOX IMVI melanoma): 12.4 µM | TGI (LOX IMVI melanoma): 24.9 µM | GI50 (SF-268 CNS): 8.58 µM | TGI (SF-268 CNS): 37.8 µM | GI50 (MOLT-4 leukemia): 7.92 µM | TGI (MOLT-4 leukemia): 24.1 µM | GI50 (SR leukemia): 7.93 µM | TGI (SR leukemia): 27.1 µM | GI50 (OVCAR-3 ovarian): 15 µM | TGI (OVCAR-3 ovarian): 29.4 µM | GI50 (SW-620 colon): 11.1 µM | TGI (SW-620 colon): 26.5 µM | GI50 (HL-60(TB) leukemia): 8.84 µM | TGI (HL-60(TB) leukemia): 26.8 µM | GI50 (DU-145 prostate): 20.7 µM | TGI (DU-145 prostate): 46.6 µM
